Data on 1 compound can be found in patent US20210371351A1, “MIXTURES COMPRISING AT LEAST TWO DIFFERENT NITRIFICATION INHIBITORS SELECTED FROM 2-(3,4-DIMETHYL-1H-PYRAZOL-1-YL)SUCCINIC ACID (DMPSA), 3,4-DIMETHYL PYRAZOLIUM GLYCOLATE (DMPG) AND OTHER COMPOUNDS” (BASF SE, priority 2017, published 2021).

Test [1] concerns nitrification. Description: Example 3: soil column trial (soil Limburgerhof) with ammonium sulfate, DMPP, DMPSA or DMPP+DMPSA; leaching at 5° C., incubation 10 d or 20 d at 15° C.; NH4-N/NO3-N, % inhibition of NO3-N formation (Böhland), Colby. The note with it: 0.05% DMPP, 0.45% DMPSA. The text has this: The effect on NH4^+ retention and NH4^+ to NO3^− ratios in the soil after fertilization of ammonium sulfate with the addition of DMPP, DMPSA or a combination of DMPP and DMPSA was investigated in column trials simulating climatic conditions of spring time in central Europe. Soil Limburgerhof (pH(CaCl2) 6.8, texture: 73% sand; 24% silt, 3% clay) was filled dry into a glass column with an inner width of 4 cm. At the bottom 0.4 g cotton wool was placed above which a frit (Co. Robu, pore size 1) was placed above which 100 g of 2 mm sieved soil Limburgerhof was layered. The soil height in the column was about 7 cm. Before fertilization the soil was brought to about 60% of its water holding capacity (WHC) be adding 14.4 mL of deionized water. Per column 10 mg NH4—N as ammonium sulfate was fertilized or not (control) together or not with 0.05% DMPP (DMPP obtained from BASF SE), 0.45% DMPSA (DMPSA used as free acid obtained from BASF SE) and 0.05% DMPP plus 0.45% DMPSA (% of nitrification inhibitor w/w of NH4—N). Every treatment was replicated three times.
After fertilization, 50 mL demineralized water was carefully and slowly placed on top of each column which equals about 31 mm precipitation. After 24 h the eluate was collected and by sucking off the soil to bring it back to about 60% of its WHC. All handlings including soil preparation, fertilization and the temperature of the water for both wetting the soil and the artificial precipitation up to the collection of the eluate 24 h after fertilization was performed at 5° C.
Thereafter, the columns were incubated for 10 d or 20 d at constantly 15° C. in an incubator. After 7 d and 14 d, water was added by weight where needed to bring the soils uniformly to 60% WHC. After 10 d or 20 d, the soil was removed from the columns and extracted with 1% (w/w) K2SO4 solution by shaking for 2 h at room temperature. The filtrated extract was then analyzed for NH4^+ and NO3 colorimetrical by an autoanalyzer.
(§1) To calculate the inhibition of nitrate formation by the nitrification inhibitors during the incubation, the above-mentioned Böhland equation was used. To examine synergistic effects of the combination of DMPP+DMPSA the formula by Colby (Colby, S.R., “Calculating synergistic and antagonistic responses of herbicide Combinations”, Weeds, 15, pp. 20-22, 1967) was used. To determine background levels of NH4+ to NO3−, every treatment was also extracted immediately after fertilization and after leaching prior to the further incubation at 15° C. for 10 d or 20 d.

In test [2] the test system is nitrification. Briefly: Example 4: soil column trial (soil Limburgerhof), DMPSA and DMPP, other weight ratios; incubation 10 d at 15° C.; % inhibition of NO3-N formation (Böhland), Colby. The note with it: 10 days of incubation at 15° C.
Description: The effect on NH4+ retention and NH4+ to NO3− ratios in the soil after fertilization of ammonium sulfate with the addition of DMPP, DMPSA or a combination of DMPP and DMPSA was investigated in column trials simulating climatic conditions of spring time in central Europe. Soil Limburgerhof (pH(CaCl2) 6.8, texture: 73% sand; 24% silt, 3% clay) was filled dry into a glass column with an inner width of 4 cm. At the bottom 0.4 g cotton wool was placed above which a frit (Co. Robu, pore size 1) was placed above which 100 g of 2 mm sieved soil Limburgerhof was layered. The soil height in the column was about 7 cm. Before fertilization the soil was brought to about 60% of its water holding capacity (WHC) be adding 14.4 mL of deionized water. Per column 10 mg NH4—N as ammonium sulfate was fertilized or not (control) together or not with 0.005% or 0.015% DMPP (DMPP obtained from BASF SE), 0.45% DMPSA (DMPSA used as free acid obtained from BASF SE) and […] or 0.015% DMPP plus 0.45% DMPSA (% of nitrification inhibitor w/w of NH4-N). Every treatment was replicated three times. After fertilization, 50 mL demineralized water was carefully and slowly placed on top of each column which equals about 31 mm precipitation. After 24 h the eluate was collected and by sucking off the soil to bring it back to about 60% of its WHC. All handlings including soil preparation, fertilization and the temperature of the water for both wetting the soil and the artificial precipitation up to the collection of the eluate 24 h after fertilization was performed at 5° C.
Thereafter, the columns were incubated for 10 d or 20 d at constantly 15° C. in an incubator. After 7 d and 14 d water was added by weight where needed to bring the soils uniformly to 60% WHC. After 10 d or 20 d the soil was removed from the columns and extracted with 1% (w/w) K2SO4 solution by shaking for 2 h at room temperature. The filtrated extract was then analyzed for NH4+ and NO3− colorimetrical by an autoanalyzer.
as §1

Setting [3] is: 10 days of incubation at 15° C.
The mark [4] stands for this setting: 20 days of incubation at 15° C.
Where [5] appears, read: 0.015% DMPP, alone or + 0.45% DMPSA.

Regarding `Cc1c[nH]nc1C.O=P(O)(O)O` [DMPP, 3,4-dimethyl pyrazole phosphate and/or 4,5-dimethyl pyrazole phosphate], in the test on nitrification [1] (setting [3]), the “During incubation: % inhibition of NO3—N formation by NI acc. to Böhland equation (1973) (MV)” value (“During incubation: % inhibition” for short) is given as 69.8%, the “Net NI effect % NH4 from fertilized NH4 (MV)” value (“Net NI effect % NH4” for short) was 41.02%, the “Ratio NH4—N/NO3—N (MV)” value came out at 2.86 and the “Soil mg/100 g NH4—N (MV)” value is 6.58 mg/100 g. Further, the “Soil mg/100 g NO3—N (MV)” value in the test with nitrification [1] (setting [3]) came to 2.34 mg/100 g. In the test on nitrification [1] (setting [4]), the “During incubation: % inhibition” value came to 14.9%, the “Net NI effect % NH4” value came to 6.67%, the “Ratio NH4—N/NO3—N (MV)” value was 0.08 and the “Soil mg/100 g NH4—N (MV)” value was 0.68 mg/100 g. In addition, the “Soil mg/100 g NO3—N (MV)” value in the test with nitrification [1] (setting [4]) is reported as 8.60 mg/100 g. For the same compound, in the test with nitrification [2] (0.005% DMPP, 0.45% DMPSA), the “During incubation: % inhibition” value is recorded as −4.6%, the “Net NI effect % NH4” value is listed as 6.22%, the “Ratio NH4—N/NO3—N (MV)” value turned out to be 0.10 and the “Soil mg/100 g NH4—N (MV)” value worked out at 0.65 mg/100 g. In the test on nitrification [2] (0.005% DMPP, 0.45% DMPSA), the “Soil mg/100 g NO3—N (MV)” value is on record as 6.94 mg/100 g. Besides, in the test with nitrification [2] (setting [5]), the “During incubation: % inhibition” value was 15.7%, the “Net NI effect % NH4” value worked out at 11.49%, the “Ratio NH4—N/NO3—N (MV)” value came out at 0.21 and the “Soil mg/100 g NH4—N (MV)” value came to 1.18 mg/100 g. Also, the “Soil mg/100 g NO3—N (MV)” value in the test on nitrification [2] (setting [5]) turned out to be 5.59 mg/100 g.
